# Calls of active or inactive are those of the source. The calls are words filed in the database; no cut-off is given here.
# Key:
# [1] = Metabolic stability in human liver microsomes assessed as parent compound remaining measured at 60 mins; type: ADME, microsome; conditions: read-out: Stability
# [2] = Intrinsic clearance in human liver microsomes; type: ADME, microsome; conditions: read-out: CLH
# [3] = Clearance in Sprague-Dawley rat at 0.5 mg/kg, iv; type: ADME, organism-based; conditions: in vivo
# [4] = Solubility of the compound at pH 7.4; type: physicochemical; conditions: buffer
# [5] = Metabolic stability in mouse liver microsomes assessed as parent compound remaining measured at 60 mins; type: ADME, microsome; conditions: read-out: Stability
# [6] = Oral bioavailability in Sprague-Dawley rat at 10 mg/kg; type: ADME, organism-based; conditions: in vivo
# [7] = target: T1, Diacylglycerol O-acyltransferase 2 (Homo sapiens, UniProt Q96PD7); experiment: Inhibition of human DGAT2 expressed in insect cell membranes using diacylglycerol/[14C]-oleoyl-CoA as substrate preincubated for 10 mins followed by [14C]-oleoyl-CoA addition measured after 15 mins by scintillation counting method
# T1 sequence (Q96PD7 whole entry): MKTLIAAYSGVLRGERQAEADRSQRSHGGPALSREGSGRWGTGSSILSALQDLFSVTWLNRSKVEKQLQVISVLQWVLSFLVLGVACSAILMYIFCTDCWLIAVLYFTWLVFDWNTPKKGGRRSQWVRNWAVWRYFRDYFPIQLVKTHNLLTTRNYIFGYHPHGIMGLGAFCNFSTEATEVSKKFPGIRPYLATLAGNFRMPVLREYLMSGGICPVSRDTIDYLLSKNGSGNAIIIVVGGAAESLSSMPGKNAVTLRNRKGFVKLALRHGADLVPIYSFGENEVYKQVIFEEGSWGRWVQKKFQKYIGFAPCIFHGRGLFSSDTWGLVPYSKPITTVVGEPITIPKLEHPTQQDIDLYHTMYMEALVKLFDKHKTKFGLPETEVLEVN
# [8] = Cmax in Sprague-Dawley rat at 10 mg/kg, po; type: ADME, organism-based; design: dose 10 mg/kg, route oral; conditions: in vivo
# [9] = test system: Mus musculus; experiment: Antiobesity activity in diet-induced obesity C57BL/6 mouse model assessed as reduction in cumulative food intake at 10 mg/kg administered via oral gavage as bid for 7 days relative to vehicle-treated control; type: functional; design: scale not given: the % may be the effect or the level left
# [10] = target: Cytochrome P450 2C9 (Homo sapiens, UniProt P11712); experiment: Inhibition of CYP2C9 (unknown origin); type: ADME
# [11] = AUC in Sprague-Dawley rat at 10 mg/kg, po; type: ADME, organism-based; conditions: in vivo
# [12] = Clearance in CD1 mouse at 0.5 mg/kg, iv; type: ADME, organism-based; conditions: in vivo
# [13] = Volume of distribution at steady state in Sprague-Dawley rat at 0.5 mg/kg, iv; type: ADME, organism-based; conditions: in vivo, read-out: Vdss
# [14] = Volume of distribution at steady state in CD1 mouse at 0.5 mg/kg, iv; type: ADME, organism-based; conditions: in vivo, read-out: Vdss
# [15] = test system: Mus musculus; experiment: Hepatotoxicity in diet-induced obesity C57BL/6 mouse model at 10 mg/kg administered via oral gavage as bid for 7 days; type: toxicity, organism-based; conditions: in vivo, 168 h
# [16] = Oral bioavailability in CD1 mouse at 10 mg/kg; type: ADME, organism-based; conditions: in vivo
# [17] = target: T2, Diacylglycerol O-acyltransferase 1 (Homo sapiens, UniProt O75907); experiment: Inhibition of human DGAT1 expressed in insect cell membranes using diacylglycerol/[14C]-oleoyl-CoA as substrate preincubated for 10 mins followed by [14C]-oleoyl-CoA addition measured after 15 mins by scintillation counting method
# T2 sequence (O75907 whole entry): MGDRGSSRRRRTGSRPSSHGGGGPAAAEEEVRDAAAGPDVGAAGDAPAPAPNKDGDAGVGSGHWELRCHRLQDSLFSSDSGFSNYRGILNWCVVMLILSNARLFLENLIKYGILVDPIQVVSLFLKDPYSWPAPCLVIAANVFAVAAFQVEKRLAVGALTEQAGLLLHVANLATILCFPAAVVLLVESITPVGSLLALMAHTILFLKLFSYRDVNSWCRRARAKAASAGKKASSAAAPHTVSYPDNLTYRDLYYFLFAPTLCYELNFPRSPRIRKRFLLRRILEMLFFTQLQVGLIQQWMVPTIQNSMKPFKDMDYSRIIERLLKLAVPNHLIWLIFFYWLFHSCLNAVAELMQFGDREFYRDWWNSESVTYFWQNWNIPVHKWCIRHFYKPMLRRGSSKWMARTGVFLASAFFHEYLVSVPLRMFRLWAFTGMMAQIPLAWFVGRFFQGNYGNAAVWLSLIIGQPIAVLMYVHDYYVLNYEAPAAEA
# [18] = Intrinsic clearance in mouse liver microsomes; type: ADME, microsome; conditions: read-out: CLH
# [19] = target: T3, Cytochrome P450 1A2 (Homo sapiens, UniProt P05177); experiment: Inhibition of CYP1A2 (unknown origin); type: ADME
# T3 sequence (P05177 whole entry): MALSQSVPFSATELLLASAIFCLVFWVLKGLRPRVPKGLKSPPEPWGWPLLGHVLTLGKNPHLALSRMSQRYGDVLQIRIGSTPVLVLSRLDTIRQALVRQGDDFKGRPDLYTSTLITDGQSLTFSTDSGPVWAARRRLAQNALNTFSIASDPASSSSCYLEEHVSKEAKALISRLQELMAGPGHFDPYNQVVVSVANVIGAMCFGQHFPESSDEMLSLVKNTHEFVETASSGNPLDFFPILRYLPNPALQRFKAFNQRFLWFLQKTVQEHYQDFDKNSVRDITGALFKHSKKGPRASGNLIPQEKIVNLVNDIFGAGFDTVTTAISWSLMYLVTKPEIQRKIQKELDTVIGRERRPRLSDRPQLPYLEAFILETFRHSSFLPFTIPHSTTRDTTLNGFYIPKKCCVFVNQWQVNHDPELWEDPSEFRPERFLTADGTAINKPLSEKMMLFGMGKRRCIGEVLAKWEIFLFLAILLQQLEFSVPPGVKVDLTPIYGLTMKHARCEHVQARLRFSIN
# [20] = target: Cytochrome P450 2C19 (Homo sapiens, UniProt P33261); experiment: Inhibition of CYP2C19 (unknown origin); type: ADME
# [21] = Cmax in CD1 mouse at 10 mg/kg, po; type: ADME, organism-based; design: dose 10 mg/kg, route oral; conditions: in vivo
# [22] = test system: Mus musculus; experiment: Inhibition of corn oil-induced plasma triacylglycerol excursion in CD1 mouse at 0.3 to 1 mg/kg administered via oral gavage 30 mins prior to corn oil challenge measured at 2 hrs by lipid tolerance test; type: functional, organism-based
# [23] = Protein binding in human plasma; type: ADME, cell-free; conditions: read-out: PPB (converted)
# [24] = Tmax in Sprague-Dawley rat at 10 mg/kg, po; type: ADME, organism-based; conditions: in vivo
# [25] = target: Cytochrome P450 2D6 (Homo sapiens, UniProt P10635); experiment: Inhibition of CYP2D6 (unknown origin); type: ADME
# [26] = test system: Mus musculus; experiment: Antiobesity activity in diet-induced obesity C57BL/6 mouse model assessed as reduction in body weight at 10 mg/kg administered via oral gavage as bid for 7 days; type: functional, organism-based
# [27] = target: T4, Diacylglycerol O-acyltransferase 1 (Mus musculus, UniProt Q9Z2A7); experiment: Inhibition of mouse DGAT1 expressed in insect cell membranes using diacylglycerol/[14C]-oleoyl-CoA as substrate preincubated for 10 mins followed by [14C]-oleoyl-CoA addition measured after 15 mins by scintillation counting method
# T4 sequence (Q9Z2A7 whole entry): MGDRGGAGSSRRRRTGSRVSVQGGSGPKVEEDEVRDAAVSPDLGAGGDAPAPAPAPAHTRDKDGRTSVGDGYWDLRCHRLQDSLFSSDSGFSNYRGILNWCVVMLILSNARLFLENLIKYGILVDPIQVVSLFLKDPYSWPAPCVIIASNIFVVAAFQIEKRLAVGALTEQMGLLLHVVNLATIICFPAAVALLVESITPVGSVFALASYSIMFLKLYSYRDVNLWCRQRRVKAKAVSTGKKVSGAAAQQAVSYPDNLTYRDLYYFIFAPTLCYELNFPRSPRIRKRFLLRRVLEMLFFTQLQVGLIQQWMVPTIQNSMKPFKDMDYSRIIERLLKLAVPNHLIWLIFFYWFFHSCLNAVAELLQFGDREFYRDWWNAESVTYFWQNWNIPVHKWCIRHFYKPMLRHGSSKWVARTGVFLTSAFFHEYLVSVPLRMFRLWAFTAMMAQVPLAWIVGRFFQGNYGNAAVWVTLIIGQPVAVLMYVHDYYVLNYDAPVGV
# [28] = Tmax in CD1 mouse at 10 mg/kg, po; type: ADME, organism-based; conditions: in vivo
# [29] = target: T2, Diacylglycerol O-acyltransferase 1; experiment: Inhibition of DGAT1 in human HEK293 cells using [13C18]oleic acid as substrate assessed as decrease in triacylglycerol synthesis preincubated for 15 mins followed by [13C18]oleic acid addition measured after 2 hrs by LC/MS/MS analysis; type: cell-based
# [30] = AUC in CD1 mouse at 10 mg/kg, po; type: ADME, organism-based; conditions: in vivo
# [31] = target: Cytochrome P450 3A4 (Homo sapiens, UniProt P08684); experiment: Inhibition of CYP3A4 (unknown origin); type: ADME
# Chain of Cytochrome P450 3A4 (P08684 whole entry): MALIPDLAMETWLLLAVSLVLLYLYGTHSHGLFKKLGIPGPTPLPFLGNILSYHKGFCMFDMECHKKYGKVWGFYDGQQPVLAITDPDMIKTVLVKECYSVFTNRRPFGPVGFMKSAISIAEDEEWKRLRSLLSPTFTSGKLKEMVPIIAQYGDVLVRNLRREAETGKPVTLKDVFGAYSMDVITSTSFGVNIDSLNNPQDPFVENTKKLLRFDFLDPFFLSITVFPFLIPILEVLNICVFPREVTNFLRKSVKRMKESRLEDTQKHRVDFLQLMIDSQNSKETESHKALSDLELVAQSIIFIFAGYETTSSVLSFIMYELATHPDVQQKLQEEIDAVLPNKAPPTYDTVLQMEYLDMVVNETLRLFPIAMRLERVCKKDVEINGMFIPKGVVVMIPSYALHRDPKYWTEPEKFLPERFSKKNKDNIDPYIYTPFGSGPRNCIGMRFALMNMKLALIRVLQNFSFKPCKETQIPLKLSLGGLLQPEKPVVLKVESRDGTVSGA
# Chain of Cytochrome P450 2D6 (P10635 whole entry): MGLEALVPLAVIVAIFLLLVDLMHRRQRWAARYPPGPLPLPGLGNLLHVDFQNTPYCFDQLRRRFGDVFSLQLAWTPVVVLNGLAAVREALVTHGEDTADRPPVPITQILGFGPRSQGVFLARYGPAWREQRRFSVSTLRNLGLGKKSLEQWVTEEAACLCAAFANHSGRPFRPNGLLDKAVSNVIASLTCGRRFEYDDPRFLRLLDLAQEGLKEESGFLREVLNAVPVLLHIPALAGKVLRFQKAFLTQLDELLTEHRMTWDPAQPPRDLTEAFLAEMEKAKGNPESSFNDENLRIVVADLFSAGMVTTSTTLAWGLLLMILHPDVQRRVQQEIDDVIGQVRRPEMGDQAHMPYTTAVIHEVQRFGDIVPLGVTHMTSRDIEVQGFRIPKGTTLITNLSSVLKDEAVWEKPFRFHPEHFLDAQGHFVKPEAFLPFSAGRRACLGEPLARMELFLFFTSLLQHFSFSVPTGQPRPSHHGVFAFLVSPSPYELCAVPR
# Chain of Cytochrome P450 2C19 (P33261 whole entry): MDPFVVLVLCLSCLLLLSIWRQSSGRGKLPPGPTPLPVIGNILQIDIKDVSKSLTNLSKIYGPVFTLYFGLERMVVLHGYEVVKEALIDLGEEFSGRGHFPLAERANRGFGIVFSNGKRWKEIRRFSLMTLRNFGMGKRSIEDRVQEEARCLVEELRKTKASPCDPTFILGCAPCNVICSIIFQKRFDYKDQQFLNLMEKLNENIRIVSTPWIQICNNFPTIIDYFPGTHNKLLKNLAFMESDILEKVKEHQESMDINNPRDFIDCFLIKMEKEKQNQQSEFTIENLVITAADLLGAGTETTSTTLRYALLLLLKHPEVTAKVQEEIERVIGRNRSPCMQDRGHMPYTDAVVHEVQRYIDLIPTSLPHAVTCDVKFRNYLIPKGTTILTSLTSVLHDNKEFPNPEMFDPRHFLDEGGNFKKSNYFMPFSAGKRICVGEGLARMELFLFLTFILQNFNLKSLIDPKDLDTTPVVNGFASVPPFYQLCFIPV
# Chain of Cytochrome P450 2C9 (P11712 whole entry): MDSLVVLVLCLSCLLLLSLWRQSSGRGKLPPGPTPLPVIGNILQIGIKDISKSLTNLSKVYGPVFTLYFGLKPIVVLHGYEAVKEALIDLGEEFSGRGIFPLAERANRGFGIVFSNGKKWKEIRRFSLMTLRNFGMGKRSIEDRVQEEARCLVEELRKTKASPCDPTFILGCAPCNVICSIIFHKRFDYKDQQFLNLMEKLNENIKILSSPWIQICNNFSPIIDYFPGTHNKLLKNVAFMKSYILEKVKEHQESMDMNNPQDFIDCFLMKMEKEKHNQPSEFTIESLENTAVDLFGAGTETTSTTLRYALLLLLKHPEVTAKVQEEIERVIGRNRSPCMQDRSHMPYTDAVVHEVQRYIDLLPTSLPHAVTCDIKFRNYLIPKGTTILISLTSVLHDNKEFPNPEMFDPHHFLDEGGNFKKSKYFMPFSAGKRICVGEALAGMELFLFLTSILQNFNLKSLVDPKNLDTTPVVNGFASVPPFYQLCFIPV
smiles,measurement,setting,value
Cc1cc(N2CCOc3ncnc(N)c3C2=O)cc(C)c1C#CC(C)(C)CC(=O)O,remaining at 1 h,[1],97.6%
same,CLint scaled,[2],< 0.57 L/h/kg
same,clearance,[3],0.286 L/h/kg
same,solubility,[4],110 µM
same,remaining at 1 h,[5],97.9%
same,bioavailability,[6],70%
same,IC50,[7],> 50 µM
same,Cmax,[8],8.7 µg/mL
same,Activity,[9],11%
same,IC50,[10],> 100 µM
same,AUC,[11],21 µg·h/mL
same,clearance,[12],2.36 L/h/kg
same,Vd,[13],1.12 L/kg
same,Vd,[14],2.44 L/kg
same,Activity,[15],Non-Toxic
same,bioavailability,[16],31%
same,IC50,[17],0.021 to 0.028 µM
same,CLint scaled,[18],< 2.28 L/h/kg
same,IC50,[19],27.6 µM
same,IC50,[20],29.7 µM
same,Cmax,[21],0.521 µg/mL
same,inhibition,[22],Active
same,fraction unbound,[23],0.139
same,Tmax,[24],30 min
same,IC50,[25],27.2 µM
same,Activity,[26],Active
same,IC50,[27],0.012 µM
same,Tmax,[28],30 min
same,EC50,[29],0.026 µM
same,AUC,[30],1.25 µg·h/mL
same,IC50,[31],45.5 µM
CC(C)(C#Cc1ccc(N2CCOc3ncnc(N)c3C2=O)cc1Cl)CC(=O)O,IC50,[27],0.026 µM
CCc1cc(N2CCOc3ncnc(N)c3C2=O)ccc1C#CC(C)(C)CC(=O)O,IC50,[27],0.682 µM
COc1cc(N2CCOc3ncnc(N)c3C2=O)cc(C)c1C#CC(C)(C)CC(=O)O,IC50,[27],0.096 µM
CC(C)(C#Cc1c(Cl)cc(N2CCOc3ncnc(N)c3C2=O)cc1Cl)CC(=O)O,IC50,[27],0.01 µM
Cc1cc(C#CC(C)(C)CC(=O)O)ccc1N1CCOc2ncnc(N)c2C1=O,IC50,[27],3.76 µM
COc1cc(N2CCOc3ncnc(N)c3C2=O)ccc1C#CC(C)(C)CC(=O)O,IC50,[27],0.728 µM
Cc1cc(N2CCOc3ncnc(N)c3C2=O)cc(Cl)c1C#CC(C)(C)CC(=O)O,IC50,[27],0.014 µM
Cc1cc(N2CCOc3ncnc(N)c3C2=O)cc(F)c1C#CC(C)(C)CC(=O)O,IC50,[27],0.011 µM
CC(C)(C#Cc1ccc(N2CCOc3ncnc(N)c3C2=O)cc1C(F)(F)F)CC(=O)O,IC50,[27],0.024 µM
CCc1cc(N2CCOc3ncnc(N)c3C2=O)cc(C)c1C#CC(C)(C)CC(=O)O,IC50,[27],0.012 µM
CC(C)(C#Cc1ccc(N2CCOc3ncnc(N)c3C2=O)cc1)CC(=O)O,clearance,[3],0.888 L/h/kg
same,bioavailability,[6],42%
same,Cmax,[8],2.17 µg/mL
same,AUC,[11],4.11 µg·h/mL
same,Vd,[13],1.06 L/kg
same,Tmax,[24],30 min
CC(C)(C#Cc1ccc(N2CCOc3ncnc(N)c3C2=O)cc1OC(F)(F)F)CC(=O)O,IC50,[27],0.092 µM
CCc1cc(N2CCOc3ncnc(N)c3C2=O)cc(CC)c1C#CC(C)(C)CC(=O)O,IC50,[27],0.012 µM
CC(C)(C#Cc1ccc(N2CCOc3ncnc(N)c3C2=O)cc1F)CC(=O)O,IC50,[27],0.058 µM
